Drawing on ChEMBL document CHEMBL1143796, “Synthesis and antimicrobial activity of 1-(4-aryl-2-thiazolyl)-3-(2-thienyl)-5-aryl-2-pyrazoline derivatives” (2007), this text covers MIC for 8 compounds.

Values after ≈ are worked out from the molar mass of the structure shown.

One experiment deals with Enterococcus faecalis. Briefly: Antibacterial activity against Streptococcus faecalis NRRL B14617 by micro-broth dilution method. The format is functional.
Conditions: not given
Background: In broth dilution the organism is exposed to a series of concentrations in liquid medium.
In the case of `Cc1ccc(-c2csc(N3N=C(c4cccs4)CC3c3ccncc3)n2)cc1` (centres undefined), the MIC stood at 250 µg/mL (≈ 621 µM).
On the same count and under the same terms, with `COc1ccc(-c2csc(N3N=C(c4cccs4)CC3c3ccncc3)n2)cc1` (centres undefined) the figure was 250 µg/mL (≈ 597 µM).
As for `c1ccc(-c2csc(N3N=C(c4cccs4)CC3c3cccnc3)n2)cc1` (centres undefined), the minimal inhibitory concentration (MIC) is 250 µg/mL (≈ 643 µM).
The same measure, in the same setting: with `COc1ccc(-c2csc(N3N=C(c4cccs4)CC3c3cccnc3)n2)cc1` (centres undefined) the figure was 250 µg/mL (≈ 597 µM).
`Clc1ccc(-c2csc(N3N=C(c4cccs4)CC3c3cccnc3)n2)cc1` (centres undefined) yielded an MIC of 125 µg/mL (≈ 296 µM).
On the same count and under the same terms, for `Clc1ccc(-c2csc(N3N=C(c4cccs4)CC3c3ccncc3)n2)cc1` (centres undefined) the value was 62.5 µg/mL (≈ 148 µM); for `c1ccc(-c2csc(N3N=C(c4cccs4)CC3c3ccncc3)n2)cc1` (centres undefined), 31.2 µg/mL (≈ 80.4 µM); for `Cc1ccc(-c2csc(N3N=C(c4cccs4)CC3c3ccccn3)n2)cc1` (centres undefined), 250 µg/mL (≈ 621 µM).

The subject of the next experiment is Staphylococcus aureus. Description: Antibacterial activity against Staphylococcus aureus NRRL B767 by micro-broth dilution method. In kind it is functional.
Conditions: not given
`Cc1ccc(-c2csc(N3N=C(c4cccs4)CC3c3ccncc3)n2)cc1` (centres undefined) had an MIC of 125 µg/mL (≈ 311 µM).
Turning to `COc1ccc(-c2csc(N3N=C(c4cccs4)CC3c3ccncc3)n2)cc1` (centres undefined), the MIC was determined as 125 µg/mL (≈ 299 µM).
Still for that read-out and setting: for `c1ccc(-c2csc(N3N=C(c4cccs4)CC3c3cccnc3)n2)cc1` (centres undefined) the value was 125 µg/mL (≈ 322 µM); for `COc1ccc(-c2csc(N3N=C(c4cccs4)CC3c3cccnc3)n2)cc1` (centres undefined), 250 µg/mL (≈ 597 µM); for `Clc1ccc(-c2csc(N3N=C(c4cccs4)CC3c3cccnc3)n2)cc1` (centres undefined), 250 µg/mL (≈ 591 µM).
Still for that read-out and setting: for `Clc1ccc(-c2csc(N3N=C(c4cccs4)CC3c3ccncc3)n2)cc1` (centres undefined) the value was 62.5 µg/mL (≈ 148 µM); for `c1ccc(-c2csc(N3N=C(c4cccs4)CC3c3ccncc3)n2)cc1` (centres undefined), 15.6 µg/mL (≈ 40.2 µM).
Same read-out and setting: for `Cc1ccc(-c2csc(N3N=C(c4cccs4)CC3c3ccccn3)n2)cc1` (centres undefined) the value was 250 µg/mL (≈ 621 µM).

For a further experiment, the system named is Nakaseomyces glabratus. Description: Antifungal activity against Candida glabrata by broth dilution antifungal susceptibility testing. In kind it is functional.
Conditions: not given
Regarding `Cc1ccc(-c2csc(N3N=C(c4cccs4)CC3c3ccncc3)n2)cc1` (centres undefined), the MIC worked out at 125 µg/mL (≈ 311 µM).
`COc1ccc(-c2csc(N3N=C(c4cccs4)CC3c3ccncc3)n2)cc1` (centres undefined): the lowest concentration to inhibit growth (MIC) was 62.5 µg/mL (≈ 149 µM).
In the case of `c1ccc(-c2csc(N3N=C(c4cccs4)CC3c3cccnc3)n2)cc1` (centres undefined), the MIC came out at 250 µg/mL (≈ 643 µM).
For `COc1ccc(-c2csc(N3N=C(c4cccs4)CC3c3cccnc3)n2)cc1` (centres undefined), it took 125 µg/mL (≈ 299 µM) to inhibit growth (MIC).
In turn, `Clc1ccc(-c2csc(N3N=C(c4cccs4)CC3c3cccnc3)n2)cc1` (centres undefined) showed an MIC of 250 µg/mL (≈ 591 µM).
On the same count and under the same terms, with `Clc1ccc(-c2csc(N3N=C(c4cccs4)CC3c3ccncc3)n2)cc1` (centres undefined) the figure was 62.5 µg/mL (≈ 148 µM); with `c1ccc(-c2csc(N3N=C(c4cccs4)CC3c3ccncc3)n2)cc1` (centres undefined), 250 µg/mL (≈ 643 µM).
On to `Cc1ccc(-c2csc(N3N=C(c4cccs4)CC3c3ccccn3)n2)cc1` (centres undefined), for which the MIC is 62.5 µg/mL (≈ 155 µM).

A further experiment relates to Candida albicans. Description: Antifungal activity against Candida albicans by micro-broth dilution method.
Conditions: not given
The format is functional.
`Cc1ccc(-c2csc(N3N=C(c4cccs4)CC3c3ccncc3)n2)cc1` (centres undefined) displayed a minimum inhibitory concentration (MIC) of 125 µg/mL (≈ 311 µM).
Still for that read-out and setting: with `COc1ccc(-c2csc(N3N=C(c4cccs4)CC3c3ccncc3)n2)cc1` (centres undefined) the figure was 62.5 µg/mL (≈ 149 µM); with `c1ccc(-c2csc(N3N=C(c4cccs4)CC3c3cccnc3)n2)cc1` (centres undefined), 250 µg/mL (≈ 643 µM); with `COc1ccc(-c2csc(N3N=C(c4cccs4)CC3c3cccnc3)n2)cc1` (centres undefined), 125 µg/mL (≈ 299 µM).
Same read-out and setting: with `Clc1ccc(-c2csc(N3N=C(c4cccs4)CC3c3cccnc3)n2)cc1` (centres undefined) the figure was 250 µg/mL (≈ 591 µM); with `Clc1ccc(-c2csc(N3N=C(c4cccs4)CC3c3ccncc3)n2)cc1` (centres undefined), 125 µg/mL (≈ 296 µM).
On to `c1ccc(-c2csc(N3N=C(c4cccs4)CC3c3ccncc3)n2)cc1` (centres undefined), for which the MIC was found to be 250 µg/mL (≈ 643 µM).
The same measure, in the same setting: for `Cc1ccc(-c2csc(N3N=C(c4cccs4)CC3c3ccccn3)n2)cc1` (centres undefined) the value was 62.5 µg/mL (≈ 155 µM).

In a further experiment the test system is Aeromonas hydrophila. Briefly: Antibacterial activity against Aeromonas hydrophila by micro-broth dilution method. The format is functional.
Conditions: not given
Compound `Cc1ccc(-c2csc(N3N=C(c4cccs4)CC3c3ccncc3)n2)cc1` (centres undefined) returned an MIC of 125 µg/mL (≈ 311 µM).
The compound `COc1ccc(-c2csc(N3N=C(c4cccs4)CC3c3ccncc3)n2)cc1` (centres undefined) yielded an MIC of 125 µg/mL (≈ 299 µM).
Same read-out and setting: for `c1ccc(-c2csc(N3N=C(c4cccs4)CC3c3cccnc3)n2)cc1` (centres undefined) the value was 250 µg/mL (≈ 643 µM); for `COc1ccc(-c2csc(N3N=C(c4cccs4)CC3c3cccnc3)n2)cc1` (centres undefined), 125 µg/mL (≈ 299 µM).
Still for that read-out and setting: for `Clc1ccc(-c2csc(N3N=C(c4cccs4)CC3c3cccnc3)n2)cc1` (centres undefined) the value was 250 µg/mL (≈ 591 µM); for `Clc1ccc(-c2csc(N3N=C(c4cccs4)CC3c3ccncc3)n2)cc1` (centres undefined), 62.5 µg/mL (≈ 148 µM).
The compound `c1ccc(-c2csc(N3N=C(c4cccs4)CC3c3ccncc3)n2)cc1` (centres undefined) came in with a minimal inhibitory concentration (MIC) of 31.2 µg/mL (≈ 80.4 µM).
The same measure, in the same setting: for `Cc1ccc(-c2csc(N3N=C(c4cccs4)CC3c3ccccn3)n2)cc1` (centres undefined) the value was 62.5 µg/mL (≈ 155 µM).

For the next experiment, the system named is Salmonella typhimurium. Description: Antibacterial activity against Salmonella Typhimurium NRRL B4420 by microbroth dilution method. In kind it is functional, Salmonella enterica subsp. enterica serovar Typhimurium. As to conditions: Salmonella enterica.
Consider `Cc1ccc(-c2csc(N3N=C(c4cccs4)CC3c3ccncc3)n2)cc1` (centres undefined), for which inhibition of growth (MIC) required 125 µg/mL (≈ 311 µM).
`COc1ccc(-c2csc(N3N=C(c4cccs4)CC3c3ccncc3)n2)cc1` (centres undefined): the MIC came out at 125 µg/mL (≈ 299 µM).
Still for that read-out and setting: for `c1ccc(-c2csc(N3N=C(c4cccs4)CC3c3cccnc3)n2)cc1` (centres undefined) the value was 250 µg/mL (≈ 643 µM).
Compound `COc1ccc(-c2csc(N3N=C(c4cccs4)CC3c3cccnc3)n2)cc1` (centres undefined) showed a minimal inhibitory concentration (MIC) of 125 µg/mL (≈ 299 µM).
Still for that read-out and setting: with `Clc1ccc(-c2csc(N3N=C(c4cccs4)CC3c3cccnc3)n2)cc1` (centres undefined) the figure was 250 µg/mL (≈ 591 µM); with `Clc1ccc(-c2csc(N3N=C(c4cccs4)CC3c3ccncc3)n2)cc1` (centres undefined), 62.5 µg/mL (≈ 148 µM); with `c1ccc(-c2csc(N3N=C(c4cccs4)CC3c3ccncc3)n2)cc1` (centres undefined), 62.5 µg/mL (≈ 161 µM).
In the case of `Cc1ccc(-c2csc(N3N=C(c4cccs4)CC3c3ccccn3)n2)cc1` (centres undefined), the MIC worked out at 125 µg/mL (≈ 311 µM).

In the next experiment the test system is Bacillus cereus. Briefly: Antibacterial activity against Bacillus cereus NRRL B3711 by micro-broth dilution method. The format is functional.
Conditions: not given
As to `Cc1ccc(-c2csc(N3N=C(c4cccs4)CC3c3ccncc3)n2)cc1` (centres undefined), the MIC came to 62.5 µg/mL (≈ 155 µM).
For the compound `COc1ccc(-c2csc(N3N=C(c4cccs4)CC3c3ccncc3)n2)cc1` (centres undefined), it took 62.5 µg/mL (≈ 149 µM) to inhibit growth (MIC).
Still for that read-out and setting: with `c1ccc(-c2csc(N3N=C(c4cccs4)CC3c3cccnc3)n2)cc1` (centres undefined) the figure was 250 µg/mL (≈ 643 µM); with `COc1ccc(-c2csc(N3N=C(c4cccs4)CC3c3cccnc3)n2)cc1` (centres undefined), 250 µg/mL (≈ 597 µM).
`Clc1ccc(-c2csc(N3N=C(c4cccs4)CC3c3cccnc3)n2)cc1` (centres undefined) gave a minimal inhibitory concentration (MIC) of 125 µg/mL (≈ 296 µM).
As to `Clc1ccc(-c2csc(N3N=C(c4cccs4)CC3c3ccncc3)n2)cc1` (centres undefined), the minimal inhibitory concentration (MIC) amounted to 62.5 µg/mL (≈ 148 µM).
The compound `c1ccc(-c2csc(N3N=C(c4cccs4)CC3c3ccncc3)n2)cc1` (centres undefined) came in with an MIC of 31.2 µg/mL (≈ 80.4 µM).
Same read-out and setting: for `Cc1ccc(-c2csc(N3N=C(c4cccs4)CC3c3ccccn3)n2)cc1` (centres undefined) the value was 250 µg/mL (≈ 621 µM).

The subject of another experiment is Escherichia coli. Description: Antibacterial activity against Escherichia coli NRRL B3704 by microbroth dilution method. The format is functional.
Conditions: not given
`Cc1ccc(-c2csc(N3N=C(c4cccs4)CC3c3ccncc3)n2)cc1` (centres undefined) yielded an MIC of 250 µg/mL (≈ 621 µM).
The compound `COc1ccc(-c2csc(N3N=C(c4cccs4)CC3c3ccncc3)n2)cc1` (centres undefined) registered a minimum inhibitory concentration (MIC) of 125 µg/mL (≈ 299 µM).
Still for that read-out and setting: for `c1ccc(-c2csc(N3N=C(c4cccs4)CC3c3cccnc3)n2)cc1` (centres undefined) the value was 250 µg/mL (≈ 643 µM); for `COc1ccc(-c2csc(N3N=C(c4cccs4)CC3c3cccnc3)n2)cc1` (centres undefined), 250 µg/mL (≈ 597 µM); for `Clc1ccc(-c2csc(N3N=C(c4cccs4)CC3c3cccnc3)n2)cc1` (centres undefined), 250 µg/mL (≈ 591 µM).
Still for that read-out and setting: for `Clc1ccc(-c2csc(N3N=C(c4cccs4)CC3c3ccncc3)n2)cc1` (centres undefined) the value was 125 µg/mL (≈ 296 µM); for `c1ccc(-c2csc(N3N=C(c4cccs4)CC3c3ccncc3)n2)cc1` (centres undefined), 250 µg/mL (≈ 643 µM).
Still for that read-out and setting: for `Cc1ccc(-c2csc(N3N=C(c4cccs4)CC3c3ccccn3)n2)cc1` (centres undefined) the value was 125 µg/mL (≈ 311 µM).

As a reminder, the MIC is the lowest concentration that inhibits growth of the organism. A high value points to a less susceptible organism.
